# Reference: ChEMBL document CHEMBL3045683, “Synthesis, characterisation and antimicrobial activities of novel 7,9-diphenyl-1,2,4-triaza-8-oxa-spiro[4.5]-decan-3-thiones” (2011)
# Experiments:
# Format in all cases: functional
# Salmonella typhi = assay: Antimicrobial activity against Salmonella enterica subsp. enterica serovar Typhi after 24 hr by two-fold serial dilution method
# Pseudomonas aeruginosa = assay: Antimicrobial activity against Pseudomonas aeruginosa after 24 hr by two-fold serial dilution method
# Candida albicans = assay: Antimicrobial activity against Candida albicans after 72 to 96 hr by two-fold serial dilution method
# Aspergillus flavus = assay: Antimicrobial activity against Aspergillus flavus after 72 to 96 hr by two-fold serial dilution method
# Staphylococcus aureus = assay: Antimicrobial activity against Staphylococcus aureus after 24 hr by two-fold serial dilution method
# Aspergillus niger = assay: Antimicrobial activity against Aspergillus niger after 72 to 96 hr by two-fold serial dilution method
# Rhizopus = assay: Antimicrobial activity against Rhizopus sp. after 72 to 96 hr by two-fold serial dilution method
# Escherichia coli = assay: Antimicrobial activity against Escherichia coli after 24 hr by two-fold serial dilution method
compound,measurement,setting,value
CCC1C(c2ccccc2)OC(c2ccccc2)CC12NNC(=S)N2 (centres undefined),MIC,Salmonella typhi,25 µg/mL
same,MIC,Pseudomonas aeruginosa,100 µg/mL
same,MIC,Candida albicans,100 µg/mL
same,MIC,Aspergillus flavus,50 µg/mL
same,MIC,Staphylococcus aureus,50 µg/mL
same,MIC,Aspergillus niger,25 µg/mL
same,MIC,Rhizopus,100 µg/mL
same,MIC,Escherichia coli,100 µg/mL
CC1C(c2ccccc2)OC(c2ccccc2)CC12NC(=S)NN2c1ccccc1 (centres undefined),MIC,Salmonella typhi,25 µg/mL
same,MIC,Pseudomonas aeruginosa,25 µg/mL
same,MIC,Candida albicans,50 µg/mL
same,MIC,Aspergillus flavus,12.5 µg/mL
same,MIC,Staphylococcus aureus,25 µg/mL
same,MIC,Aspergillus niger,25 µg/mL
same,MIC,Rhizopus,25 µg/mL
same,MIC,Escherichia coli,12.5 µg/mL
S=C1NN(c2ccccc2)C2(CC(c3ccccc3)OC(c3ccccc3)C2)N1 (centres undefined),MIC,Salmonella typhi,50 µg/mL
same,MIC,Pseudomonas aeruginosa,25 µg/mL
same,MIC,Candida albicans,50 µg/mL
same,MIC,Aspergillus flavus,12.5 µg/mL
same,MIC,Staphylococcus aureus,50 µg/mL
same,MIC,Aspergillus niger,50 µg/mL
same,MIC,Rhizopus,12.5 µg/mL
same,MIC,Escherichia coli,50 µg/mL
O=C(O)c1cn(C2CC2)c2cc(N3CCNCC3)c(F)cc2c1=O [CIPROFLOXACIN],MIC,Salmonella typhi,50 µg/mL
same,MIC,Escherichia coli,25 µg/mL
CCC1C(c2ccccc2)OC(c2ccccc2)CC12NC(=S)NN2c1ccccc1 (centres undefined),MIC,Salmonella typhi,25 µg/mL
same,MIC,Pseudomonas aeruginosa,12.5 µg/mL
same,MIC,Candida albicans,25 µg/mL
same,MIC,Aspergillus flavus,50 µg/mL
same,MIC,Staphylococcus aureus,25 µg/mL
same,MIC,Aspergillus niger,25 µg/mL
same,MIC,Rhizopus,12.5 µg/mL
same,MIC,Escherichia coli,12.5 µg/mL
CC1C(c2ccccc2)OC(c2ccccc2)CC12NNC(=S)N2 (centres undefined),MIC,Salmonella typhi,100 µg/mL
same,MIC,Pseudomonas aeruginosa,50 µg/mL
same,MIC,Candida albicans,100 µg/mL
same,MIC,Aspergillus flavus,50 µg/mL
same,MIC,Staphylococcus aureus,25 µg/mL
same,MIC,Aspergillus niger,50 µg/mL
same,MIC,Rhizopus,25 µg/mL
same,MIC,Escherichia coli,100 µg/mL
C[C@@H]1[C@H](O)[C@@H](C)/C=C/C=C/C=C/C=C/C=C/C=C/C=C/[C@H](O[C@@H]2O[C@H](C)[C@@H](O)[C@H](N)[C@@H]2O)C[C@@H]2O[C@](O)(C[C@@H](O)C[C@@H](O)[C@H](O)CC[C@@H](O)C[C@@H](O)CC(=O)O[C@H]1C)C[C@H](O)[C@H]2C(=O)O [AMPHOTERICIN B],MIC,Candida albicans,25 µg/mL
same,MIC,Aspergillus flavus,50 µg/mL
same,MIC,Aspergillus niger,50 µg/mL
same,MIC,Rhizopus,25 µg/mL
S=C1NNC2(CC(c3ccccc3)OC(c3ccccc3)C2)N1 (centres undefined),MIC,Salmonella typhi,25 µg/mL
same,MIC,Pseudomonas aeruginosa,100 µg/mL
same,MIC,Candida albicans,200 µg/mL
same,MIC,Aspergillus flavus,100 µg/mL
same,MIC,Staphylococcus aureus,12.5 µg/mL
same,MIC,Aspergillus niger,50 µg/mL
same,MIC,Rhizopus,100 µg/mL
same,MIC,Escherichia coli,50 µg/mL
